Data taken from US4826850A, “Quinoline base compound, process for the preparation thereof and anticancer agent containing the same as pharmacologically efficacious component” (Mect Corporation, priority 1986, dated 1989).
In brackets after ≈: the same amount, converted by molar mass.

Tests used:
[1] = acridine derivatives, literature; cited from earlier work
[2] = system: KB cells; assay: Effect in inhibiting growth of KB-cells (in vitro); type: cell-based; conditions: Homo sapiens, 72 h, drug added day 1, cells counted day 4, inhibition rate 50%, read-out: Concentration giving 50% growth inhibition (ED50; Inhibition Rate 50%)
Experimental: (1) Effect in Inhibiting Growth of KB-Cells
The KB-cell, one of the cancer-causing tumor cells, was incubated in an in vitro floating incubation system, and the pharmacological effects of the Compounds (4) and (5) were compared with a control to which the compounds had not been added.
KB Cells (derived from a human epidermoid carcinoma of the mouth).
Eagles minimal essential medium (MEM)-10% calf serum.
37° C. in a carbon dioxide gas incubator (5% CO2).
Day 0: The KB cells were diluted to 2×10^4 /ml medium. 3 ml of the thus diluted KB cell suspension was incubated on a 60 mm plastic dish, at 2 dishes per dose level.
Day 1: Each drug was added into each dish so that the drug content in each dish was adjusted, respectively, to 100, 30, 10, 3 and 1 μg/ml.
Day 4: The cells were stripped from the surface of each dish, and the number of cells was counted using a Kohlter's counter.
A substance or drug having an ED50 value of not more than 4 μg/ml for a synthesized product was appraised as an effective substance. Meanwhile, in evaluating the effect of inhibiting growth of KB-cells, the number of surviving cells was counted by a Kohlter's counter, and the counted number was compared to that of the control (without the addition of the Compound (1)) to find the concentration of the drug for inhibiting the growth by 50%, the thus found concentration being estimated as the ED50 value.

[3] = system: P-388; assay: Effect in prolonging life of P-388 mice; type: in vivo, mouse; conditions: CDF1 mice, P-388 i.p., control 100
Experimental: Test Example 2: Effect in Prolonging the Life of Mouse with Cancer, and Acute Toxicity of Drugs
Using P-388 mice with cancer, the pharmacological efficacy of the aforementioned compounds was evaluated by comparing with a control to which no such compound had been added.
Animal Used: CDF1 Mice (6 mice/group)
Number of Incubated Cells: 10^6 cells/mouse
Days at which Drugs Were Administered: Days 1 and 5, or days 1 to 9
Quantities of Drugs Administered: When a drug was administered at days 1 and 5, the maximum dosed quantity was set at LD50 or 400 mg/kg/day; and when a drug was administered at days 1 to 9, the maximum dosed quantity was set at 1/2×LD50 or 200 mg/kg/day. The experiment was conducted with groups of mice being administered the respective drugs at 3 dose levels incuding the maximum level, 1/2 of the maximum level and 1/4 of the maximum level.
When the T/C %, i.e. the ratio of the survival time (days) of a treated group (administered with a certain drug) to the survival time of a control group (administered with no drug), was 120% or more for a synthesized substance and 130% or more for a natural substance, the drug was appraised as effective (P). The survival time of the group administered with no drug is normally about 10 days (median survival time). In the following Table, an indication of "T/C 0%" means that not less than three mice were dead due to toxicity within 5 days.

SMILES	Anticancer effect [1]	IC50 [2] [µg/mL]	Life Prolonging Rate (T/C) ([3]; Dosage 12.5 mg/kg) [%]	Life Prolonging Rate (T/C) ([3]; Dosage 25 mg/kg) [%]	Life Prolonging Rate (T/C) ([3]; Dosage 50 mg/kg) [%]	Life Prolonging Rate (T/C) ([3]; Dosage 100 mg/kg) [%]	Life Prolonging Rate (T/C) ([3]; Dosage 200 mg/kg) [%]	Life Prolonging Rate (T/C) ([3]; Dosage 400 mg/kg, T/C 0% means not less than three mice dead due to toxicity within 5 days) [%]
COc1cc(NS(C)(=O)=O)ccc1Nc1c2ccccc2nc2ccccc12 [amsacrine, N-(4-(9-acridinylamino)-3-methoxyphenyl)-methanesulfoneamide]	most effective derivative	–	–	–	–	–	–	–
COc1cc(NS(C)(=O)=O)ccc1Nc1c2c(nc3ccccc13)CCCC2 [tetrahydroamsacrine]	reduced anticancer effect	–	–	–	–	–	–	–
COc1cc(NS(C)(=O)=O)ccc1Nc1c2ccccc2nc2c1oc1ccccc12 [Compound 4, N-(4-((benzofuro(3,2-b)quinoline-11yl)amino)-3-methoxyphenyl)methane sulfoneamide]	–	0.3 (≈ 0.692 µM)	180	195	200	–	–	–
COc1cc(NS(C)(=O)=O)ccc1Nc1c2c(nc3ccccc13)-c1ccccc1C2 [Compound 6]	–	< 0.3	166	–	217	240	60	0
COc1cc(NS(C)(=O)=O)ccc1Nc1c2ccccc2nc2c1sc1ccccc12 [Compound 5, N-(4-((benzothieno(3,2-b)quinoline-11-yl)amino)-3-methoxyphenyl)methanesulfoneamide]	–	0.3 (≈ 0.667 µM)	138	170	170	–	–	–
